Measured values published in patent publication US4266001A, “Light-sensitive mixture” (Hoechst Aktiengesellschaft, priority 1978, dated 1981).

Experiment: Solubility of naphthoquinone diazides in ethylene glycol monomethyl ether
Format: physicochemical
Conditions: for Solubility (%): 26° C., stirred for 2 hours, 2 g in 50 g, crystalline samples, substantially free from amorphous fractions; for solubility (in words): Table 2
Method: The solubility of the new naphthoquinone diazides, as compared with the known bis-1,2-naphthoquinone-2-diazide-5-sulfonic acid ester of 2,2-bis-(4-hydroxyphenyl)-propane (comparison compound V), was determined as follows: 2 g of the naphthoquinone diazide were suspended in each case in 50 g of ethylene glycol monomethyl ether and stirred for 2 hours at 26° C. Then, the mixture was filtered by suction, the filter residue was washed successively with 10 cm^3 of methanol and 10 cm^3 of ether and dried in vacuo and its weight was determined. The solubilities in ethylene glycol monomethyl ether, listed in Table 2, were calculated from the difference to the quantity employed: […]
In all cases, it was confirmed by diffraction diagrams taken with an X-ray diffractometer that the samples tested were substantially free from amorphous fractions. In every case, the solubility of a solid compound which is wholly or partially present in the amorphous state is markedly higher than that of the corresponding crystalline compound. A comparison with these values is, however, unreliable because the solubilities of amorphous compounds cannot be determined with exact reproducibility due to the differing tendency of supersaturated solutions to crystallize.

Compound	Solubility (%)	solubility (in words)
COC(C)CCOC(=O)CCC(C)(c1ccc(OS(=O)(=O)c2cccc3c2C=CC(=[N+]=[N-])C3=O)cc1)c1ccc(OS(=O)(=O)c2cccc3c2C=CC(=[N+]=[N-])C3=O)cc1 (centres unmarked) [Compound 9]	1.54%	very good solubility
COCCOC(=O)CCC(C)(c1ccc(OS(=O)(=O)c2cccc3c2C=CC(=[N+]=[N-])C3=O)cc1)c1ccc(OS(=O)(=O)c2cccc3c2C=CC(=[N+]=[N-])C3=O)cc1 (centres unmarked) [Compound 7]	0.91%	–
CCCCOC(=O)C(c1ccc(OS(=O)(=O)c2cccc3c2C=CC(=[N+]=[N-])C3=O)cc1)c1ccc(OS(=O)(=O)c2cccc3c2C=CC(=[N+]=[N-])C3=O)cc1 (centres unmarked) [Compound 20]	> 7.4%	very good solubility
CCOCCOC(=O)C(c1ccc(OS(=O)(=O)c2cccc3c2C=CC(=[N+]=[N-])C3=O)cc1)c1ccc(OS(=O)(=O)c2cccc3c2C=CC(=[N+]=[N-])C3=O)cc1 (centres unmarked) [Compound 22]	6.0%	very good solubility
CCCOC(=O)C(c1ccc(OS(=O)(=O)c2cccc3c2C=CC(=[N+]=[N-])C3=O)cc1)c1ccc(OS(=O)(=O)c2cccc3c2C=CC(=[N+]=[N-])C3=O)cc1 (centres unmarked) [Compound 19]	0.95%	–
CCOCCOC(=O)CCC(C)(c1ccc(OS(=O)(=O)c2cccc3c2C=CC(=[N+]=[N-])C3=O)cc1)c1ccc(OS(=O)(=O)c2cccc3c2C=CC(=[N+]=[N-])C3=O)cc1 (centres unmarked) [Compound 8]	3.80%	very good solubility
CCOC(=O)CCC(C)(c1ccc(OS(=O)(=O)c2cccc3c2C=CC(=[N+]=[N-])C3=O)cc1)c1ccc(OS(=O)(=O)c2cccc3c2C=CC(=[N+]=[N-])C3=O)cc1 (centres unmarked) [Compound 3]	0.86%	–
COC(=O)CCC(C)(c1ccc(OS(=O)(=O)c2cccc3c2C=CC(=[N+]=[N-])C3=O)cc1)c1ccc(OS(=O)(=O)c2cccc3c2C=CC(=[N+]=[N-])C3=O)cc1 (centres unmarked) [Compound 2]	1.85%	very good solubility
CC(C)(c1ccc(OS(=O)(=O)c2cccc3c2C=CC(=[N+]=[N-])C3=O)cc1)c1ccc(OS(=O)(=O)c2cccc3c2C=CC(=[N+]=[N-])C3=O)cc1 [V, bis-1,2-naphthoquinone-2-diazide-5-sulfonic acid ester of 2,2-bis-(4-hydroxyphenyl)-propane, reference compound]	0.75%	–
